Experimental data: patent US20220187282A1, “CARDIOMYOCYTE PROLIFERATION” (The Council of the Queensland Institute of Medical Research, priority 2019, published 2022)
Where two headings read alike, the source gives them in different places.

Columns and labels:
Assay type in all cases: biochemical
[1] = target: kinases (Homo sapiens, UniProt O00506); settings: STK25 (YSK1) FRET-Z-Lyte SP; Test Conc(μM):ATP Conc(μM) 1:75
[2] = target: kinases (Homo sapiens, UniProt O14936); settings: CASK FRET-Lantha SP; Test Conc(μM) 1
[3] = target: kinases (Homo sapiens, UniProt O94768); settings: STK17B (DRAK2) FRET-Lantha SP; Test Conc(μM) 1
[4] = target: kinases (Homo sapiens, UniProt O94921); settings: CDK14(PFTK1)/cyclinY Lantha SP; Test Conc(μM) 1
[5] = target: kinases (Homo sapiens, UniProt P19525); settings: EIF2AK2 (PKR) FRET-Lantha SP; Test Conc(μM) 1
kinases (Homo sapiens, UniProt P19525), sequence (P19525 whole entry): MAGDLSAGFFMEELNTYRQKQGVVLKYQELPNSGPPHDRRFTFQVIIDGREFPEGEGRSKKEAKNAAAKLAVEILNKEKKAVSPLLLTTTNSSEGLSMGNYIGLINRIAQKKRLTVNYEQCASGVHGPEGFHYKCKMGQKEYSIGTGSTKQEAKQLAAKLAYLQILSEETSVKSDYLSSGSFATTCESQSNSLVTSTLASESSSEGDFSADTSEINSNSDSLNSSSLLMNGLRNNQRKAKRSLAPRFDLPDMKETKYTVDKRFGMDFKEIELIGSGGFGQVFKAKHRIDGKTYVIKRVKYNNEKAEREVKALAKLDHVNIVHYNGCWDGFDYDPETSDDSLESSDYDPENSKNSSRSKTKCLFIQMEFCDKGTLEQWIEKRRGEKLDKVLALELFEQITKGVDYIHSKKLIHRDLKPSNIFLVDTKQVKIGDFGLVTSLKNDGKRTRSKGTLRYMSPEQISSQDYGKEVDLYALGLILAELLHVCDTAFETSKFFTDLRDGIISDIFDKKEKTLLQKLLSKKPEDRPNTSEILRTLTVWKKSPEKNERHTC

[6] = target: kinases (Homo sapiens, UniProt P23443); settings: RPS6KB1 (p70S6K) Z-Lyte SP; Test Conc(μM):ATP Conc(μM) 1:10
[7] = target: kinases (Homo sapiens, UniProt P23458); settings: JAK1 FRET-Z-Lyte SP; Test Conc(μM):ATP Conc(μM) 1:75
[8] = target: kinases (Homo sapiens, UniProt P29320); settings: EPHA3 FRET-Lantha SP; Test Conc(μM) 1
[9] = target: kinases (Homo sapiens, UniProt P31749); settings: AKT1 (PKB alpha) Z-Lyte SP; Test Conc(μM):ATP Conc(μM) 1:75
[10] = target: kinases (Homo sapiens, UniProt P42336)
kinases (Homo sapiens, UniProt P42336), sequence (P42336 whole entry): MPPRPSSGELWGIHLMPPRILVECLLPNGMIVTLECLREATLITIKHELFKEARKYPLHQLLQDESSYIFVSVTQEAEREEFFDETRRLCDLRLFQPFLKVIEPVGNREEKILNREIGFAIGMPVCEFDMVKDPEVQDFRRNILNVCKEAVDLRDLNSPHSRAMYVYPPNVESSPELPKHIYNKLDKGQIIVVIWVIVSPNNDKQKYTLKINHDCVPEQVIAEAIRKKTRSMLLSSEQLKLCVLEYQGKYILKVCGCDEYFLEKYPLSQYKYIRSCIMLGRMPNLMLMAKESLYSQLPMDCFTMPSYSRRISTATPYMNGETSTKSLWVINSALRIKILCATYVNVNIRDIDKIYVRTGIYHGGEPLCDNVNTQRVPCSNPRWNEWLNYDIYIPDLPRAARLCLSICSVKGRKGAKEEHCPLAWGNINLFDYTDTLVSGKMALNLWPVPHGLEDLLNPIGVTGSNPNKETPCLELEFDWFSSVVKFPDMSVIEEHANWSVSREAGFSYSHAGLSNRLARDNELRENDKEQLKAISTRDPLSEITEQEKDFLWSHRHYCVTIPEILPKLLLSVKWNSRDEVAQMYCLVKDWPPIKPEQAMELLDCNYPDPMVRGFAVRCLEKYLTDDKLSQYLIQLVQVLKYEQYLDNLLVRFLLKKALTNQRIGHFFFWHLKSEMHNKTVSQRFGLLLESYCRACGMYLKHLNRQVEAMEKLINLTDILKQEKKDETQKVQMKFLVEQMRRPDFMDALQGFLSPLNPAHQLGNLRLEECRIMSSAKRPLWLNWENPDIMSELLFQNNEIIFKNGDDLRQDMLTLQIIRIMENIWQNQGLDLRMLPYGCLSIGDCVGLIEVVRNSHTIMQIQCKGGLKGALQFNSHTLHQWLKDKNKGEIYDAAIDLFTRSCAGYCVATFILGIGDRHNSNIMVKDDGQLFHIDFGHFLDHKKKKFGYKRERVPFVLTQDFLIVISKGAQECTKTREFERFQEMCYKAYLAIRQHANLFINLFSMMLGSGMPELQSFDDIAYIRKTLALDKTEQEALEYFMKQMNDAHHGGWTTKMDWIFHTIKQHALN

[11] = target: kinases (Homo sapiens, UniProt P42356); settings: PI4KA FRET-Adapta SP; Test Conc(μM):ATP Conc(μM) 1:10
[12] = target: kinases (Homo sapiens, UniProt P42681); settings: TXK FRET-Z-Lyte SP; Test Conc(μM):ATP Conc(μM) 1:100
[13] = target: kinases (Homo sapiens, UniProt P48729); settings: CSNK1A1 FRET-Z-Lyte SP; Test Conc(μM):ATP Conc(μM) 1:5
[14] = target: kinases (Homo sapiens, UniProt P49336); settings: CDK8/cyclin C FRET-Lantha SP; Test Conc(μM) 1
[15] = target: kinases (Homo sapiens, UniProt Q00534); settings: CDK6 Cyclin D1 FRET-Adapta SP; Test Conc(μM):ATP Conc(μM) 1:10
kinases (Homo sapiens, UniProt Q00534), sequence (Q00534 whole entry): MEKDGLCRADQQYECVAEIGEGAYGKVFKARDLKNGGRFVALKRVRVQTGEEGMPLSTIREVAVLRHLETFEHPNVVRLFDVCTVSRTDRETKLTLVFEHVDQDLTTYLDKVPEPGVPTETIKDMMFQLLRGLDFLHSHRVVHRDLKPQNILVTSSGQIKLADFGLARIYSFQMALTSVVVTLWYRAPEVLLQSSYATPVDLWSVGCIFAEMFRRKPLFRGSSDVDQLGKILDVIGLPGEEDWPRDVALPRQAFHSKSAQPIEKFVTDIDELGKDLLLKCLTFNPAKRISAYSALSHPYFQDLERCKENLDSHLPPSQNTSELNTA

[16] = target: kinases (Homo sapiens, UniProt Q05513); settings: PRKCZ (PKC zeta) Z-Lyte SP; Test Conc(μM):ATP Conc(μM) 1:5
[17] = target: kinases (Homo sapiens, UniProt Q09013); settings: DMPK FRET-Lantha SP; Test Conc(μM) 1
[18] = target: kinases (Homo sapiens, UniProt Q13177); settings: PAK2 (PAK65) FRET-Z-Lyte SP; Test Conc(μM):ATP Conc(μM) 1:75
[19] = target: kinases (Homo sapiens, UniProt Q13188); settings: STK3 (MST2) FRET-Z-Lyte SP; Test Conc(μM):ATP Conc(μM) 1:50
[20] = target: kinases (Homo sapiens, UniProt Q16512); settings: PKN1 (PRK1) FRET-Z-Lyte SP; Test Conc(μM):ATP Conc(μM) 1:50
[21] = target: kinases (Homo sapiens, UniProt Q16566); settings: CAMK4 (CaMKIV) FRET-Z-Lyte SP; Test Conc(μM):ATP Conc(μM) 1:25
[22] = target: kinases (Homo sapiens, UniProt Q8N5S9); settings: CAMKK1 (Alpha) FRET-Lantha SP; Test Conc(μM) 1
[23] = target: kinases (Homo sapiens, UniProt Q8WTQ7); settings: GRK7 FRET-Z-Lyte SP; Test Conc(μM):ATP Conc(μM) 1:10
[24] = target: kinases (Homo sapiens, UniProt Q96PF2); settings: STK22B (TSSK2) FRET-Z-Lyte SP; Test Conc(μM):ATP Conc(μM) 1:5
[25] = target: kinases (Homo sapiens, UniProt Q9BZL6); settings: PRKD2 (PKD2) Z-Lyte SP; Test Conc(μM):ATP Conc(μM) 1:25
kinases (Homo sapiens, UniProt Q9BZL6), sequence (Q9BZL6 whole entry): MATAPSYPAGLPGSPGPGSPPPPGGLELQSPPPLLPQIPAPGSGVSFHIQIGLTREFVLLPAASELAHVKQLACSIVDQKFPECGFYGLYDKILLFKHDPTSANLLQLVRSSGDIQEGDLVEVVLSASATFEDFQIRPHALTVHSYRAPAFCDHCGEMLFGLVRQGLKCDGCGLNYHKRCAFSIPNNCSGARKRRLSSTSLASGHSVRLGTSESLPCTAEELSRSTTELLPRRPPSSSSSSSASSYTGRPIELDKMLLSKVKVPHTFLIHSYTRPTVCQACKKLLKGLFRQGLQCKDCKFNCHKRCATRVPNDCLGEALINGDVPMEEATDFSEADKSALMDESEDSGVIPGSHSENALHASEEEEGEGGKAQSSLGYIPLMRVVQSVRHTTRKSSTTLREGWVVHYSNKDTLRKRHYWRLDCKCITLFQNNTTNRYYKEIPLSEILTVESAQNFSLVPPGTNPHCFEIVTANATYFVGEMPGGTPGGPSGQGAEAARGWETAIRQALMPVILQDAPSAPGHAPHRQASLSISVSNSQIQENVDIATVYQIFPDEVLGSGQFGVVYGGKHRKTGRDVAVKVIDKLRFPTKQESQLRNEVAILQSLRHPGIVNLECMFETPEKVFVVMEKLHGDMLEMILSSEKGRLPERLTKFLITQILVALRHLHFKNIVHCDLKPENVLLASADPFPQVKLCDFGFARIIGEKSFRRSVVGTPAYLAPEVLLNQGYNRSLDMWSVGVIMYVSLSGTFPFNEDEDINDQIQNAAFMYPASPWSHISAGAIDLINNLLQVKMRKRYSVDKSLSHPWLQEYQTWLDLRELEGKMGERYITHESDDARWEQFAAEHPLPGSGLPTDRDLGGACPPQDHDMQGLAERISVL

[26] = target: kinases (Homo sapiens, UniProt Q9NQU5); settings: PAK6 FRET-Z-Lyte SP; Test Conc(μM):ATP Conc(μM) 1:10
[27] = target: kinases (Homo sapiens, UniProt Q9UBF8); settings: PI4KB FRET-Adapta SP; Test Conc(μM):ATP Conc(μM) 1:5
[28] = target: kinases (Homo sapiens, UniProt Q9Y3S1); settings: WNK2 FRET-Lantha SP; Test Conc(μM) 1
kinases (Homo sapiens, UniProt Q9Y3S1), sequence (Q9Y3S1 whole entry): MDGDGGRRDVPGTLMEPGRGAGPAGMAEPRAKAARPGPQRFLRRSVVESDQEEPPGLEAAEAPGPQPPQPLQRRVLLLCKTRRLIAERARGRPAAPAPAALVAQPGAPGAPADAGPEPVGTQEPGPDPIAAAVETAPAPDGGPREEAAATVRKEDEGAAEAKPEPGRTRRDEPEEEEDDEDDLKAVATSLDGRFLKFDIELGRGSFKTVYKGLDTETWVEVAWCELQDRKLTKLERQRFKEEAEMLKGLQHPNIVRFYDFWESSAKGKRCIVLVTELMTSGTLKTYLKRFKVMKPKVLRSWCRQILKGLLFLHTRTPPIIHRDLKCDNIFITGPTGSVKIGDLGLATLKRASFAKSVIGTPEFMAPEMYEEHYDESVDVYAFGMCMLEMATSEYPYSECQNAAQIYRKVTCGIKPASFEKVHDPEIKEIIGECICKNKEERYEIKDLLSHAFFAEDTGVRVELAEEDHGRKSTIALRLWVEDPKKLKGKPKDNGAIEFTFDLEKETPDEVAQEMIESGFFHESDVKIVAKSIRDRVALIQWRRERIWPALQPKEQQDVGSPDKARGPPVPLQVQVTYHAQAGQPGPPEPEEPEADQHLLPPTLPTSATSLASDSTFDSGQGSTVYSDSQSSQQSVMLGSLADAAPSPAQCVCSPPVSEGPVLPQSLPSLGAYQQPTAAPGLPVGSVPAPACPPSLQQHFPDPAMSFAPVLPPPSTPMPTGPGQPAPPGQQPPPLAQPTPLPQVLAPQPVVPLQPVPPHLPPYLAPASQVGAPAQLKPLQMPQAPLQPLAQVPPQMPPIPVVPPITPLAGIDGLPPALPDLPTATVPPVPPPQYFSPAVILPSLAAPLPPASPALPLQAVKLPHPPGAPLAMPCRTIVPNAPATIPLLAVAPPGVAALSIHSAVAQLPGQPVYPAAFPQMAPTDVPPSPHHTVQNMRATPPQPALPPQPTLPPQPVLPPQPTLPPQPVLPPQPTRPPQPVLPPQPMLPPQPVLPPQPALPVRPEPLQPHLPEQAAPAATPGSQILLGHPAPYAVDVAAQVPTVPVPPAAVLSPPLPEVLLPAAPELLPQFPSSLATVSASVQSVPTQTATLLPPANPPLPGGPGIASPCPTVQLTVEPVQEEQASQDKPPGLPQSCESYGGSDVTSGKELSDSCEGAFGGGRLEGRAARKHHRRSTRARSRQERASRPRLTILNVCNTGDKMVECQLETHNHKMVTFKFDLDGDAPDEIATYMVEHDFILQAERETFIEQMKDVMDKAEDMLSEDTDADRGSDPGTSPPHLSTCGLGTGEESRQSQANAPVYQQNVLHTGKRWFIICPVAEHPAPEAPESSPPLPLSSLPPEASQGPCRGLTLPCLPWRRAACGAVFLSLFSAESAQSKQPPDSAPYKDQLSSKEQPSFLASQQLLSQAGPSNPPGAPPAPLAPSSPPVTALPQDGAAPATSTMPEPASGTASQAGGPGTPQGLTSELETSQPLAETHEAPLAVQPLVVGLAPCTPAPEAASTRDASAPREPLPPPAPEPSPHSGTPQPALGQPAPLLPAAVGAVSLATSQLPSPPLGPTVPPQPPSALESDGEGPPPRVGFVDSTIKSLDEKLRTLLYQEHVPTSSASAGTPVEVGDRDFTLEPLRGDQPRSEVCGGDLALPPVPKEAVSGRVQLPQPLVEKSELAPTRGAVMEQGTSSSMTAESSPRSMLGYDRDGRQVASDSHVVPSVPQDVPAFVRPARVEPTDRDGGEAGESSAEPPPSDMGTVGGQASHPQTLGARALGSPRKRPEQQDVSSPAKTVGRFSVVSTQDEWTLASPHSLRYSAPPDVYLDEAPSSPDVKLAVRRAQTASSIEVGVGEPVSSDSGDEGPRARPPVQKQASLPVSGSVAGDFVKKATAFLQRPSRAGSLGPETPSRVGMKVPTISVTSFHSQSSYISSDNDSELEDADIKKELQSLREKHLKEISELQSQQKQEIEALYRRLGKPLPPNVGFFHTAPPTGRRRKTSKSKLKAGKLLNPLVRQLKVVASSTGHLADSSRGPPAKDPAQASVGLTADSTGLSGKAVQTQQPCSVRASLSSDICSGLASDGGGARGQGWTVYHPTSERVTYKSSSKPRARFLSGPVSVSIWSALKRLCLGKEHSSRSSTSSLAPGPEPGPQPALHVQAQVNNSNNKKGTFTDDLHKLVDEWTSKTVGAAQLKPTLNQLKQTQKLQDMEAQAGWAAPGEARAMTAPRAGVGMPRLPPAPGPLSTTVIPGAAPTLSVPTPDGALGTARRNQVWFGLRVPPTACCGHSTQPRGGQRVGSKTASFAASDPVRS

[29] = PIK3CA/PIK3R1 FRET-Adapta SP, Test Conc(μM):ATP Conc(μM) 1:25
[30] = PIK3CA/PIK3R3 FRET-Adapta SP, Test Conc(μM):ATP Conc(μM) 1:10

Structure (SMILES)	Mean Inhib (%) [1] [%]	Mean Inhib (%) [2] [%]	Mean Inhib (%) [3] [%]	Mean Inhib (%) [4] [%]	Mean Inhib (%) [5] [%]	Mean Inhib (%) [6] [%]	Mean Inhib (%) [7] [%]	Mean Inhib (%) [8] [%]	Mean Inhib (%) [9] [%]	Mean Inhib (%) [10, 29] [%]	Mean Inhib (%) [10, 30] [%]	Mean Inhib (%) [11] [%]	Mean Inhib (%) [12] [%]	Mean Inhib (%) [13] [%]	Mean Inhib (%) [14] [%]	Mean Inhib (%) [15] [%]	Mean Inhib (%) [16] [%]	Mean Inhib (%) [17] [%]	Mean Inhib (%) [18] [%]	Mean Inhib (%) [19] [%]	other results
Cc1ccc(NC(=O)c2ccnc(N3CCOCC3)c2)cc1Nc1ccnc(N2CC(C)OC(C)C2)n1 (stereo not shown) [compound 3]	8.8	16.8	4.7	3.5	2.8	4.7	−1.9	4.8	5.2	8.4	−3.0	4.3	5.1	4.2	8.6	−1.8	12.0	7.1	14.5	6.9	Mean Inhib (%) [20]: −5.8%; Mean Inhib (%) [21]: −5.4%; Mean Inhib (%) [22]: −7.3%; Mean Inhib (%) [23]: 4.6%; Mean Inhib (%) [24]: 1.2%; Mean Inhib (%) [25]: 1.5%; Mean Inhib (%) [26]: 15.9%; Mean Inhib (%) [27]: −9.0%; Mean Inhib (%) [28]: 9.6%
Cc1cc(Oc2ccnc(Nc3ccc(S(N)(=O)=O)cc3)c2)c(-c2ccccn2)nc1C [compound 65]	2.0	12.1	2.0	11.7	3.6	1.0	4.3	27.9	−1.3	0.0	3.9	−6.0	44.8	4.1	5.9	6.7	−22.4	0.5	12.5	1.1	Mean Inhib (%) [20]: 0.4%; Mean Inhib (%) [21]: −1.8%; Mean Inhib (%) [22]: −6.4%; Mean Inhib (%) [23]: 8.3%; Mean Inhib (%) [24]: −0.9%; Mean Inhib (%) [25]: 21.2%; Mean Inhib (%) [26]: 16.2%; Mean Inhib (%) [27]: 0.5%; Mean Inhib (%) [28]: 5.8%
